Assay results as given in patent US9538734B2, “Germ cell ablation compounds and uses thereof” (THE GENERAL HOSPITAL CORPORATION, priority 2013, dated 2017).

Columns and labels:
zebrafish embryos [1] = assay: Sex of adults after embryonic treatment; assay type: in vivo; conditions: embryos treated during early development
zebrafish embryos [2] = assay: Observable effects on embryonic development, apoptosis; assay type: in vivo
Method: (§1) In an effort to discover pathways essential for PGC maintenance, a small molecule screen for compounds that promote disappearance of PGCs was performed. The screen was performed with transgenic zebrafish embryos that express GFP exclusively in PGCs. Of 7,000 small molecules screened, three caused disappearance of PGCs without causing other observable changes in embryonic development. The three PGC-ablating compounds were close structural analogs of each other, and the representative compound from this class was named primordazine (FIG. 1A). […] PGC loss was confirmed by multiple PGC lineage markers (FIG. 1B).

PRE-containing mRNAs = assay: Translation of GFP mRNA tagged with nanos1 3′UTR in mammalian cell lines (western blotting); assay type: cell-based; conditions: GFP mRNA tagged with 120 bases from nanos1 3′UTR, transfected mammalian cell lines
Method: GFP mRNA was tagged with 120 bases from the nanos1 3′UTR and transfected into various mammalian cell lines. The effect of primordazine was determined by western blotting.

pgam5 = target: T1, pgam5 (Homo sapiens, UniProt Q96HS1); assay: Western blot confirmation of binding to primordazine
T1 sequence (Q96HS1 1-289): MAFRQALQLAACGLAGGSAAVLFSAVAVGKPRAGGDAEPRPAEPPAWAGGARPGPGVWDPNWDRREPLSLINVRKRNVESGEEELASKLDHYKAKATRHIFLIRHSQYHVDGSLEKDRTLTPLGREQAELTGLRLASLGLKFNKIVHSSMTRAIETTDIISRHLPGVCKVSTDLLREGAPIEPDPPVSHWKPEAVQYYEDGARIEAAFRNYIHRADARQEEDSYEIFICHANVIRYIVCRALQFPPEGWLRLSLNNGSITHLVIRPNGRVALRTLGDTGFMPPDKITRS

deadend 3′UTR = assay: Translation of GFP message tagged with fragments of the deadend 3′UTR; conditions: in vivo
Text: FIG. 26 illustrates that, in addition to regulating the translation of proteins containing elements from the nanos1 3′ UTR, primordazine blocks translation of proteins from mRNAs containing the deadend 3′UTR.

nanos1 mRNA = nanos1 mRNA level (quantitative PCR) and localization (fluorescent in situ hybridization, confocal microscopy); assay type: in vivo, zebrafish
Text: Therefore, mRNA destabilization is not the mechanism by which primordazine blocks nanos1 expression. Next, fluorescent in situ hybridization and confocal microscopy were used to examine the localization of nanos1 mRNA within germ cells.

dCTPP1 = target: T2, dCTPP1 (Homo sapiens, UniProt Q9H773); assay: Western blot confirmation of binding to primordazine beads
T2 sequence (Q9H773 1-170): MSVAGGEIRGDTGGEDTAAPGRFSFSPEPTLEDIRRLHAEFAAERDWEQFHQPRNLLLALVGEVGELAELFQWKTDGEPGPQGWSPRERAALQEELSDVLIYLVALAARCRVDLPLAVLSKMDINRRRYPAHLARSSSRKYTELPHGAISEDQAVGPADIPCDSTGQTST

[3] = system: primordazine response element (PRE) of nanos1 3′ UTR; assay: Translation of injected GFP reporter RNA fused to nanos1 3′ UTR / PRE; assay type: in vivo, zebrafish; conditions: for translation of EGFP: EGFP mRNA fused to 120 bases of nanos1 3′UTR
Text: During the process of confirming PGC loss in primordazine-treated embryos, it was discovered that GFP translation was highly sensitive to primordazine treatment when fused to the 3′ UTR of the nanos1 gene, but not when fused to other 3′ UTRs. The 3′ UTR of the nanos1 gene was examined for elements capable of conferring primordazine sensitivity. […] This sequence is called the Primordazine Response Element (PRE). […] When other sequences from the nanos1 3′ UTR are used, primordazine has no effect on GFP expression.
mRNA translation is tested using the same GFP reporter depicted in FIG. 2. This reporter consists of GFP mRNA fused to the nanos1 3′ UTR with a mutant miR-430 site. When injected into one-cell stage zebrafish, GFP is expressed in both germ and somatic cells (Giraldez, A. J. et al. Zebrafish MiR-430 promotes deadenylation and clearance of maternal mRNAs. Science 312, 75-79 (2006); Mishima, Y. et al. Differential regulation of germline mRNAs in soma and germ cells by zebrafish miR-430. Curr Biol 16, 2135-2142 (2006)). […] As such, the quantity of mRNA is increased as detected by qPCR, but the quantity of GFP protein diminishes, as determined by quantitative fluorescence microscopy (see FIG. 2 for an example). Mutant animals were injected with the GFP reporter mRNA and quantify the amount of mRNA and protein present at 11 and 24 hours. Attention was paid to the effects of the mutations on baseline translation of GFP and also for effects of the mutations on responsiveness to primordazine.

GFP labeled PGCs = assay: Count of GFP labeled PGCs in tilapia embryos exposed to primordazine; assay type: in vivo, Tilapia (Oreochromis niloticus); conditions: for reduction in PGCs number: 5 uM; for GFP labeled cells in midline trunk region: 1 cell stage embryos, 3 day old; for reduction in PGCs number compared to control: after 3 days, 28° C.
Method: Tilapia (Oreochromis niloticus) lines used in this study are derived from a Brazilian strain obtained from a US commercial producer. To study PGCs, assays were performed on embryos from female tilapia carrying the Zpc5:eGFP:tnos 3′UTR construct which produce embryos with GFP labeled PGCs. The tilapia Zpc5 promoter is an oocyte specific promoter, active during oogenesis prior to the first meiotic division. As such, all embryos from an heterozygous transgenic female inherit the eGFP:tnos 3′UTR mRNA, which localizes and become expressed exclusively in PGCs through the action of cis-acting RNA element in their 3′UTR (tilapia nanos 3′UTR). In this system GFP expression in the embryo is strictly maternal. Thus, similarly to zebrafish nos1 3′UTR, tilapia nanos 3′ UTR (tnos 3′UTR) can deliver mRNA and subsequently heterologous protein expression to the PGCs in developing embryos. In this line, GFP expression is first observed in 2 day old embryos, progeny of transgenic female. At 3 days post fertilization (dpf) in 28° C. water, GFP-expressing cells coalesced in two bilateral rows on the midline above the intestine (FIG. 41A). The GFP labeled primordial germ cell can be visualized for up to 6 days post fertilization but fluorescence starts to fade between days 4 & 5. Primordazine treatment: Embryos at different developmental stages were placed into hatching water at 28° C. in plastic Petri dishes with gentle stirring. The first cell division takes place approximately two hours post fertilization (hpf) and gastrulation begins at around 10 hpf. We transferred pre-gastrula (2 hpf, 5 hpf) and post-gastrula embryos (15 hpf) to 96 well plates (1-2 embryos/well) prefilled with hatching water supplemented with 2 fold dilution series of primordazine from 20 uM to 2.5 uM or DMSO (control). The 96 well plate was placed under gentle stirring in a temperature control room at 28° C. At time intervals, embryos were analyzed for GFP expression under a fluorescence dissecting microscope (Zeiss Stereo Discovery.V8) equipped with a GFP filter set. To quantify primordazine activity, 3 day old embryos were placed in fresh water and PGCs were counted. At this stage, in the non-treated control group, approximately 95% of PGCs have migrated to the genital ridges.

[4] = system: primordial germ cells (PGCs); assay: PGC ablation in transgenic zebrafish embryos expressing GFP in PGCs (small molecule screen); assay type: in vivo
Method: as §1
Optimization is driven primarily by potency, meaning that each compound acquired is tested for potency, and potency changes influence subsequent rounds of compound design. For testing compounds, 3-5 transgenic zebrafish embryos (expressing GFP from the vasa promoter) are placed in each well of clear-bottom, black-wall 96 well plates. Embryos are treated with DMSO or varying doses of a compound in two-fold dilutions from 8 uM to 16 nM, beginning at 2 h postfertilization. At 24 h, the plate is loaded onto the screening microscope, which systematically scans wells and captures fluorescent images of fish in each well. The efficacy of each compound dose in ablating PGCs is recorded, yielding an EC50 for each compound.

DHX9 = assay: Primordazine affinity matrix pull-down with iTRAQ; assay type: binding; conditions: whole zebrafish lysates, with and without competition from free primordazine
Method: A primordazine derivative was synthesized in which an 8-atom linker was appended from the indole nitrogen, terminating in a carboxylic acid (FIG. 4B). […] The derivatized primordazine was then coupled to Affi-Gel 102 agarose beads, generating an affinity matrix (FIG. 4C). The affinity matrix was incubated with whole zebrafish lysates with and without competition from free primordazine, and iTRAQ was used to identify any primordazine-binding proteins. An RNA helicase, DHX9, was identified as binding specifically to the affinity matrix, along with two RNA-binding adapter proteins HNRNPH1 and HNRNPA2B1.

SMILES: CCC(Sc1nnc2c3ccccc3n(CC)c2n1)C(=O)Nc1cccc(C(C)=O)c1 (centres unmarked) [primordazine]
- sex when adult (zebrafish embryos [1]): tend to be males
- apoptosis (zebrafish embryos [2]; FIG. 12): does not cause apoptosis
- effect on development or organogenesis (zebrafish embryos [2]; effective doses): no visible effect
- translation of PRE-containing mRNAs (PRE-containing mRNAs): inhibits translation
- binding of pgam5 (pgam5): bind
- translation of EGFP from mRNAs containing the deadend 3′UTR (deadend 3′UTR): blocks the translation
- localization of nanos1 mRNA within germ cells (nanos1 mRNA; fluorescent in situ hybridization, confocal microscopy): became localized to discrete puncta
- nanos1 mRNA levels (nanos1 mRNA; quantitative PCR): no decrease
- binding of dCTPP1 (dCTPP1): bind
- translation of EGFP ([3]; absence of polyadenylation): effectively blocked translation
- translation of EGFP ([3]; polyadenylated in vitro prior to injection): failed to block translation
- translation of GFP protein ([3]; GFP mRNA followed by the nanos1 3′ UTR): prevents its translation
- stability of GFP reporter mRNA ([3]; GFP mRNA with nanos1 3′ UTR): stabilizes the mRNA
- translation of GFP RNA ([3]; PRE placed in its 3′ UTR, RNA injected into zebrafish): blocked
- GFP expression ([3]; other sequences from the nanos1 3′ UTR): no effect
- reduction in PGCs number (GFP labeled PGCs; later time point (13 hour old embryos)): 41%
- reduction in PGCs number (GFP labeled PGCs; treatment begins at 2 hpf): 72%
- GFP labeled cells in midline trunk region (GFP labeled PGCs; 10 uM): marked reduction in number
- reduction in PGCs number compared to control (GFP labeled PGCs; 10 uM, 5 hours old embryos): 47%
- GFP labeled cells in midline trunk region (GFP labeled PGCs; 20 uM): complete disappearance
- reduction in PGCs number compared to control (GFP labeled PGCs; 20 uM, 5 hours old embryos): 67%
- level of GFP intensity in PGCs (GFP labeled PGCs; 5 hours old embryos): reduced
- concentration for maximal efficacy of germ cell ablation ([4]; egg / hatching water concentration): 6 µM
- PGC-ablating activity ([4]; zebrafish embryos, GFP in PGCs): ablates PGCs in a dose-dependent manner
- effective concentration in zebrafish embryos ([4]; zebrafish, in vivo): high nanomolar to low micromolar
- binding of DHX9 (DHX9): Binds
